Earlier results on one compound are cited in patent publication US7816298B2, “Hydroconversion processes employing multi-metallic catalysts and method for making thereof” (Chevron U. S. A. Inc., priority 2007, dated 2010).

One may read the LD50 as the dose at which mortality reaches 50%.

The series relates to rats. To be noted: as single oral dose to rats; values quoted for chelating agents (ligand L).

The structures appear in SMILES notation.

For `O=CC(=O)O` [glyoxylic], the LD50 is 3000 mg/kg.
